Like-named read-outs stand apart in the source and are kept apart here.

The conditions of data set [1]: snar bond.
The target of data set [2] is CFTR-mediated chloride transport (Homo sapiens, UniProt P13569). It counts as cell-based. To be noted: enteroid cells incubated with test compound 18-24 hours, acute 10 μM forskolin and 300 nM Compound III; for Max. Activity: % of chloride transport with 3 μM Compound A, 3 μM Compound II and 300 nM acute Compound III triple combination control. In a few lines: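 Human intestinal enteroid cells incubated with compound 18–24 h at 37° C., then membrane potential dye (FLIPR) read 15 min after chloride-free stimulation with 10 μM forskolin, 100 μM IBMX and 300 nM Compound III. AUC expressed as % of triple-combination control (3 μM Compound A, 3 μM Compound II, 300 nM Compound III).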
Chain of CFTR-mediated chloride transport (P13569 whole entry, looked up): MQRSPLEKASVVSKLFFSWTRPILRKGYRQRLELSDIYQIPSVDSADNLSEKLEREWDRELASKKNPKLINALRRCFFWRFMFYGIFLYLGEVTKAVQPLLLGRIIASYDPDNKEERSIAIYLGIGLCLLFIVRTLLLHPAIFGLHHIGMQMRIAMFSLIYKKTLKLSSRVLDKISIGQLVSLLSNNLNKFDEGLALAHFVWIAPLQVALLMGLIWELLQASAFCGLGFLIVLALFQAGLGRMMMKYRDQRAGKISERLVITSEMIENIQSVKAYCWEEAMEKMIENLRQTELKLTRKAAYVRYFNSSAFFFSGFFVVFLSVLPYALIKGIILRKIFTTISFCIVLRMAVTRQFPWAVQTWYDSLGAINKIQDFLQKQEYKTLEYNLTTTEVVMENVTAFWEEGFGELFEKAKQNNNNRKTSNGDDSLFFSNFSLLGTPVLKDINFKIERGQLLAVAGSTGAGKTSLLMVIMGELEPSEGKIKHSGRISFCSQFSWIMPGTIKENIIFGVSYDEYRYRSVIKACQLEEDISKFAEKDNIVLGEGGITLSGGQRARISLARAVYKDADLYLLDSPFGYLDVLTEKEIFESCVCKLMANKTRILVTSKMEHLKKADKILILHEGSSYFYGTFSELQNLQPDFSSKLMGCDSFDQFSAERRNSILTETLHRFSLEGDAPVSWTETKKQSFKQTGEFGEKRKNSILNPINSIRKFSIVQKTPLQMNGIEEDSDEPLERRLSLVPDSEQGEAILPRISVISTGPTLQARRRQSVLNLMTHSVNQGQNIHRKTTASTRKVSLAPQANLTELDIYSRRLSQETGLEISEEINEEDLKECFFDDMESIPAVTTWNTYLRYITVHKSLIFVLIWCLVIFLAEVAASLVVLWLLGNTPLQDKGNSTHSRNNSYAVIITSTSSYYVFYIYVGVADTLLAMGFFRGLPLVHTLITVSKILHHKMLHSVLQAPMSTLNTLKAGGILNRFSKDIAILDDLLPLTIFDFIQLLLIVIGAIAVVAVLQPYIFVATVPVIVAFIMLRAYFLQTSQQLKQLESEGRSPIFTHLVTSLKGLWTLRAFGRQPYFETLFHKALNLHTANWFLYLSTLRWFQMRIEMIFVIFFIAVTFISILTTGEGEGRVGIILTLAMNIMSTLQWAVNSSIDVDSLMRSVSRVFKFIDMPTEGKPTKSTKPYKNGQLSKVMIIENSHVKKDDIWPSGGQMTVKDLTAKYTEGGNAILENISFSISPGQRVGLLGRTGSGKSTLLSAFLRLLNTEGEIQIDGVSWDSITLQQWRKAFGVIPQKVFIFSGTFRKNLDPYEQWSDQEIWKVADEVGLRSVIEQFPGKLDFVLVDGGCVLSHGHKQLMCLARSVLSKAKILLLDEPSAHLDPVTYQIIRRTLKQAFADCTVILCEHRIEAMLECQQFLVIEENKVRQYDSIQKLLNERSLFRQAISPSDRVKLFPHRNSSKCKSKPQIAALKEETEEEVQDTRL

Where [3] appears, read: from 2-chloro-6-[3-(4,4-dimethylpentoxy)-2-oxo-pyrrolidin-1-yl]-N-[[6-[3-[(3S)-5,5-dimethylpyrrolidin-3-yl]propylamino]-2-pyridyl]sulfonyl]pyridine-3-carboxamide (dihydrochloride salt), 15-membered ring, K2CO3, NMP, 24.7 mM, 155.0 °C.
The mark [4] stands for this setting: from CC1(C)CC(CCCCCNc2cccc(S(=O)(=O)NC(=O)c3ccc(-n4ccc(OCCC5(C(F)(F)F)CC5)n4)nc3Cl)n2)CN1, 17-membered ring, K2CO3/CsF/3A MS, DMSO, 35.8 mM, 165.0 °C, 16.0 h.

By EC50 is commonly meant the midpoint of the concentration-response curve. On to `CC1(C)CC2CCCNc3cccc(n3)S(=O)(=O)NC(=O)c3ccc(-n4ccc(OCC5(C(F)(F)F)CC5)n4)nc3N1C2` (racemic) [Compound 15, 12,12-dimethyl-8-(3-{[1-(trifluoromethyl)cyclopropyl]methoxy}-1H-pyrazol-1-yl)-2λ^6-thia-3,9,11,18,23-pentaazatetracyclo[17.3.1.111,14.05,10]tetracosa-1(23),5(10),6,8,19,21-hexaene-2,2,4-trione], for which, in data set [1] (from CC1(C)CC(CCCNc2cccc(S(=O)(=O)NC(=O)c3ccc(-n4ccc(OCC5(C(F)(F)F)CC5)n4)nc3Cl)n2)CN1, 15-membered ring, K2CO3/CsF/3A MS, DMSO, 43.8 mM, 150.0 °C, 16.0 h, 2 steps), the ring closure, isolated yield is 54%. For the same molecule, in data set [2], the EC50 is less than 1000 nM and the “Max. Activity” value is “+++ (+++ is >60%)”.
Molecule `CC1(C)C[C@@H]2CCCn3ccc(n3)S(=O)(=O)NC(=O)c3ccc(-n4ccc(OCCC5C6(CC6)C56CC6)n4)nc3N1C2` [Compound 187, (18S)-4-[3-(2-{Dispiro[2.0.2.1]heptan-7-yl}ethoxy)-1H-pyrazol-1-yl]-20,20-dimethyl-10λ^6-thia-1,3,9,14,22-pentaazatetracyclo[16.2.1.111,14.02,7]docosa-2,4,6,11(22),12-pentaene-8,10,10-trione] came in with a ring closure, isolated yield in data set [1] (from CC1(C)C[C@H](CCCn2ccc(S(=O)(=O)NC(=O)c3ccc(-n4ccc(OCCC5C6(CC6)C56CC6)n4)nc3Cl)n2)CN1, 14-membered ring, K2CO3/CsF/3A MS, DMSO, 26.2 mM, 155.0 °C, 18.0 h) of 72%. In addition, in data set [2], the EC50 was less than 1000 nM and the “Max. Activity” value is reported as “+++ (+++ is >60%)”.
In the case of `[2H]C([2H])(COc1ccn(-c2ccc3c(n2)N2C[C@@H](CCCNc4cccc(n4)S(=O)(=O)NC3=O)CC2(C)C)n1)C1C2(CC2)C12CC2` [Compound 252, (14S)-8-[3-(2-{dispiro[2.0.2.1]heptan-7-yl}-2,2-dideuterio-ethoxy)-1H-pyrazol-1-yl]-12,12-dimethyl-2λ^6-thia-3,9,11,18,23-pentaazatetracyclo[17.3.1.111,14.05,10]tetracosa-1(22),5,7,9,19(23),20-hexaene-2,2,4-trione], in data set [1] (from 2-chloro-6-[3-(2,2-dideuterio-2-dispiro[2.0.2.1]heptan-7-yl-ethoxy)pyrazol-1-yl]-N-[[3-[(3S)-5,5-dimethylpyrrolidin-3-yl]propylamino]-2-pyridyl]sulfonyl]pyridine-3-carboxamide (trifluoroacetate salt), 15-membered ring, K2CO3, NMP, 21.6 mM, 150.0 °C), the ring closure, isolated yield is 85%. For the same molecule, in data set [2], the EC50 was less than 1000 nM and the “Max. Activity” value is recorded as “+++ (+++ is >60%)”.
As to “racemic 8-[3-(2-{dispiro[2.0.2.1]heptan-7-yl}ethoxy)-1H-pyrazol-1-yl]-16,16-difluoro-12,12-dimethyl-2λ^6-thia-3,9,11,18,23-pentaazatetracyclo[17.3.1.111,14.05,10]tetracosa-1(22),5,7,9,19(23),20-hexaene-2,2,4-trione”, in data set [1] (15-membered ring, K2CO3, NMP, 31.1 mM, 150.0 °C), the ring closure, isolated yield was determined as 83%.
As to `CC(C)(C)CCCOC1CCN(c2ccc3c(n2)N2C[C@@H](CCCNc4cccc(n4)S(=O)(=O)NC3=O)CC2(C)C)C1=O` (single isomer, unassigned; diastereomer 2), in data set [1] (setting [3]), the ring closure, isolated yield is 19%.
As to `CC1(C)CC2CCCn3ccc(n3)S(=O)(=O)NC(=O)c3ccc(-n4ccc(OCCC5C(C)(C)C5(C)C)n4)nc3N1C2` (stereo not drawn), the ring closure, isolated yield in data set [1] (from CC(C)(C)OC(=O)N1CC(CCCn2ccc(S(=O)(=O)NC(=O)c3ccc(-n4ccc(OCCC5C(C)(C)C5(C)C)n4)nc3Cl)n2)CC1(C)C, 14-membered ring, K2CO3/3A MS, NMP, 49.2 mM, 160.0 °C, 2 steps) worked out at 20%.
As for `CC1(C)CC2CCCCCNc3cccc(n3)S(=O)(=O)NC(=O)c3ccc(-n4ccc(OCCC5(C(F)(F)F)CC5)n4)nc3N1C2` (single isomer, unassigned; enantiomer 2), the ring closure, isolated yield in data set [1] (setting [4]) was 50%.
Take `CC1(C)C[C@@H]2CCCNc3cccc(n3)S(=O)(=O)NC(=O)c3ccc(Cl)nc3N1C2`: the ring closure, isolated yield in data set [1] (from 2,6-dichloro-N-[[6-[3-[(3S)-5,5-dimethylpyrrolidin-3-yl]propylamino]-2-pyridyl]sulfonyl]pyridine-3-carboxamide (dihydrochloride salt), 15-membered ring, K2CO3/CsF/3A MS, NMP, 113.8 mM, 150.0 °C) worked out at 54%.
The molecule `CC1(C)CC2CCCCCNc3cccc(n3)S(=O)(=O)NC(=O)c3ccc(-n4ccc(OCCC5(C(F)(F)F)CC5)n4)nc3N1C2` (single isomer, unassigned; enantiomer 1) gave a ring closure, isolated yield in data set [1] (setting [4]) of 47%.
As to `CC1(C)CC2CC(F)CNc3cccc(n3)S(=O)(=O)NC(=O)c3ccc(-n4ccc(OCCC5C6(CC6)C56CC6)n4)nc3N1C2` (stereo not drawn), the ring closure, isolated yield in data set [1] (from 2-chloro-N-[[6-[[3-(5,5-dimethylpyrrolidin-3-yl)-2-fluoro-propyl]amino]-2-pyridyl]sulfonyl]-6-[3-(2-dispiro[2.0.2.1]heptan-7-ylethoxy)pyrazol-1-yl]pyridine-3-carboxamide (dihydrochloride salt), 15-membered ring, K2CO3, NMP, 32.3 mM, 150.0 °C) was determined as 76%.
`CC(C)(C)CCCOC1CCN(c2ccc3c(n2)N2C[C@@H](CCCNc4cccc(n4)S(=O)(=O)NC3=O)CC2(C)C)C1=O` (single isomer, unassigned; diastereomer 1): in data set [1] (setting [3]), the ring closure, isolated yield came out at 20%.
As to `[2H]C([2H])(Oc1ccn(-c2ccc3c(n2)N2C[C@@H](CCCNc4cccc(n4)S(=O)(=O)NC3=O)CC2(C)C)n1)C([2H])([2H])C1C2(CC2)C12CC2`, the ring closure, isolated yield in data set [1] (from [2H]C([2H])(Oc1ccn(-c2ccc(C(=O)NS(=O)(=O)c3cccc(NCCC[C@@H]4CN(C(=O)OC(C)(C)C)C(C)(C)C4)n3)c(Cl)n2)n1)C([2H])([2H])C1C2(CC2)C12CC2, 15-membered ring, K2CO3/3A MS, NMP, 22.2 mM, 155.0 °C, 2 steps) was found to be 60%.
For the molecule `CC1(C)C[C@@H]2CCCNc3cccc(n3)S(=O)(=O)NC(=O)c3ccc(N4CCC(OCCC5C6(CC6)C56CC6)C4=O)nc3N1C2` (stereo partly drawn), in data set [1] (from 2-chloro-N-[[6-[3-[(3S)-5,5-dimethylpyrrolidin-3-yl]propylamino]-2-pyridyl]sulfonyl]-6-[3-(2-dispiro[2.0.2.1]heptan-7-ylethoxy)-2-oxo-pyrrolidin-1-yl]pyridine-3-carboxamide (dihydrochloride salt), 15-membered ring, K2CO3, NMP, 24.0 mM, 150.0 °C), the ring closure, isolated yield worked out at 52%.
As to `CC1(C)C[C@@H]2CCCNc3ccc(OCc4ccccc4)c(n3)S(=O)(=O)NC(=O)c3ccc(-n4ccc(OCCC5C6(CC6)C56CC6)n4)nc3N1C2`, the ring closure, isolated yield in data set [1] (from CC1(C)C[C@H](CCCNc2ccc(OCc3ccccc3)c(S(=O)(=O)NC(=O)c3ccc(-n4ccc(OCCC5C6(CC6)C56CC6)n4)nc3Cl)n2)CN1, 15-membered ring, K2CO3, NMP, 57.2 mM, 150.0 °C, 20.0 h) is 37%.
For the molecule `CC1(C)C[C@@H]2CCCNc3cc(OCc4ccccc4)cc(n3)S(=O)(=O)NC(=O)c3ccc(-n4ccc(OCCC5C6(CC6)C56CC6)n4)nc3N1C2`, the ring closure, isolated yield in data set [1] (from CC1(C)C[C@H](CCCNc2cc(OCc3ccccc3)cc(S(=O)(=O)NC(=O)c3ccc(-n4ccc(OCCC5C6(CC6)C56CC6)n4)nc3Cl)n2)CN1, 15-membered ring, K2CO3/CsF, DMSO, 15.3 mM, 160.0 °C, 15.0 h) turned out to be 61%.
In the case of `CC1(C)C[C@@H]2CCCNc3cc(OCc4ccccc4)cc(n3)S(=O)(=O)NC(=O)c3ccc(-n4ccc(OCCCC5(C(F)(F)F)CC5)n4)nc3N1C2`, the ring closure, isolated yield in data set [1] (from CC1(C)C[C@H](CCCNc2cc(OCc3ccccc3)cc(S(=O)(=O)NC(=O)c3ccc(-n4ccc(OCCCC5(C(F)(F)F)CC5)n4)nc3Cl)n2)CN1, 15-membered ring, K2CO3/CsF, DMSO, 14.1 mM, 160.0 °C, 15.0 h) was found to be 56%.
Molecule “12,12,19-trimethyl-8-(3-{2-[1-(trifluoromethyl)cyclopropyl]ethoxy}-1H-pyrazol-1-yl)-2λ^6-thia-3,9,11,19,21-pentaazatetracyclo[18.2.2.111,14.05,10]pentacosa-1(23),5,7,9,20(24),21-hexaene-2,2,4-trione (dihydrochloride salt)” came in with a ring closure, isolated yield in data set [1] (17-membered ring, K2CO3/CsF, DMSO, 42.1 mM, 150.0 °C) of 39%.
`CC1(C)CCC2CCCNc3cccc(n3)S(=O)(=O)NC(=O)c3ccc(-n4ccc(OCC5C6(CC6)C56CC6)n4)nc3N21` (stereo not drawn): the ring closure, isolated yield in data set [1] (from 2-chloro-N-[[6-[3-(5,5-dimethylpyrrolidin-2-yl)propylamino]-2-pyridyl]sulfonyl]-6-[3-(dispiro[2.0.2.1]heptan-7-ylmethoxy)pyrazol-1-yl]pyridine-3-carboxamide (dihydrochloride salt), 14-membered ring, K2CO3/CsF, NMP, 123.1 mM) amounted to 41%.
In turn, `CC1(C)C[C@@H]2CCCNc3nc(ccc3OCc3ccccc3)S(=O)(=O)NC(=O)c3ccc(-n4ccc(OCCC5C6(CC6)C56CC6)n4)nc3N1C2` showed a ring closure, isolated yield in data set [1] (from CC1(C)C[C@H](CCCNc2nc(S(=O)(=O)NC(=O)c3ccc(-n4ccc(OCCC5C6(CC6)C56CC6)n4)nc3Cl)ccc2OCc2ccccc2)CN1, 15-membered ring, K2CO3/CsF, DMSO, 17.2 mM, 160.0 °C, 15.0 h) of 83%.
As for `CC1(C)C[C@@H]2CCCNc3nc(ccc3OCc3ccccc3)S(=O)(=O)NC(=O)c3ccc(-n4ccc(OCCCC5(C(F)(F)F)CC5)n4)nc3N1C2`, the ring closure, isolated yield in data set [1] (from CC1(C)CC(CCCNc2nc(S(=O)(=O)NC(=O)c3ccc(-n4ccc(OCCCC5(C(F)(F)F)CC5)n4)nc3Cl)ccc2OCc2ccccc2)CN1, 15-membered ring, K2CO3/CsF, DMSO, 17.7 mM, 160.0 °C, 15.0 h) was found to be 82%.
On to `CC1(C)CC2CCCCNc3ccc(cn3)S(=O)(=O)NC(=O)c3ccc(-n4ccc(OCC5C6(CC6)C56CC6)n4)nc3N1C2` (stereo not drawn), for which the ring closure, isolated yield in data set [1] (from 2-chloro-N-[[6-[4-(5,5-dimethylpyrrolidin-3-yl)butylamino]-3-pyridyl]sulfonyl]-6-[3-(dispiro[2.0.2.1]heptan-7-ylmethoxy)pyrazol-1-yl]pyridine-3-carboxamide (dihydrochloride salt), 17-membered ring, K2CO3/CsF, NMP, 115.5 mM) stood at 22%.

Source of the values: patent US11866450B2, “Modulators of Cystic Fibrosis Transmembrane Conductance regulator, pharmaceutical compositions, methods of treatment, and process for making the modulators” (priority 2018, dated 2024).
